Data taken from US20030211075A1 (priority 2001, published 2003).

Tests used:
[1] = test system: HT29 human colorectal carcinoma; experiment: HT29 xenograft, tumor growth and necrosis after tTF constructs and Factor VIIa; format: in vivo, mouse; settings: mouse, in vivo, iv
[2] = cited from earlier work
[3] = Toxicity to mice of agents given separately; settings: mouse, in vivo
[4] = molecular target: human endoglin (human) (UniProt P17813); experiment: in vivo localization, human/SCID animal with human skin graft containing a tumor, overnight
human endoglin (human), sequence (P17813 26-658): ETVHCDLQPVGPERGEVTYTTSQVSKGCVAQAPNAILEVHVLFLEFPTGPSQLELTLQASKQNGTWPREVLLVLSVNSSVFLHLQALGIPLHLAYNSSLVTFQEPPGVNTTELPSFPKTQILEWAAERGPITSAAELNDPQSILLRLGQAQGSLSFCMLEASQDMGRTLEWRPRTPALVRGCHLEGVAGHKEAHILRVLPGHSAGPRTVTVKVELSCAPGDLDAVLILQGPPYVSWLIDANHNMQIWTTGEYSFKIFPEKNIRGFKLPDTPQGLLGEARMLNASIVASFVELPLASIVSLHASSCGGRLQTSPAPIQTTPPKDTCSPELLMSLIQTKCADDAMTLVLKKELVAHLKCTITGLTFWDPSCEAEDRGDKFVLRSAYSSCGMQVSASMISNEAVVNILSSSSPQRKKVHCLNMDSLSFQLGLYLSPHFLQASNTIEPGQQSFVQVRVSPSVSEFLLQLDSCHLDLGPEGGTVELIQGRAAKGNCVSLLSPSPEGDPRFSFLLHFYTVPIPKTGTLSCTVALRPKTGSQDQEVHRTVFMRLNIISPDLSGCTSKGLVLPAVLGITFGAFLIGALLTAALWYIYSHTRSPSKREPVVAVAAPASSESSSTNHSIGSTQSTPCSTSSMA

[5] = progressive disease before treatment; cited from earlier work
[6] = in vivo; cited from earlier work
[7] = test system: HUVEC cells; experiment: FACS analysis of tissue factor expression on endothelial cells; format: cell-based, human; settings: TNFα 500 U/ml, LPS 10 μg/ml, VEGF 1 nM, 6 h
Protocol: To analyze tissue factor expression on the surface of endothelial cells, HUVEC cells were incubated with TNFα (500 U/ml), LPS (10 μg/ml) or vascular endothelial growth factor (VEGF, 1 nM) alone or in combination for 6 h at 37°. Cells were then detached and stained for surface expression of human tissue factor with a sheep-anti-human tissue factor antibody (Haemochrom. Essen. Germany) and an appropriate FITC-conjugated secondary antibody. Fluorescent cells were detected on a flow cytometer (Becton Dickinson, San Jose, Calif.).

[8] = test system: Mouse bEnd.3 endothelial cells; experiment: PS translocation and viability of endothelial cells exposed to H2O2; format: cell-based
Protocol: Mouse bEnd.3 endothelial cells were seeded at an initial density of 50,000 cells/well. Twenty-fours later cells were incubated with increasing concentrations of H2O2 (from 10 μM to 500 μM) for 1 hour at 37° C, or left untreated. At the end of the incubation, cells were washed 3 times with PBS containing 0.2% gelatin and fixed with 0.25% glutaraldehyde. Identical wells were either stained with anti-PS IgM or trypsinized and evaluated for viability by the Trypan Blue exclusion test. For the anti-PS staining, after blocking with 2% gelatin for 10 min., cells were incubated with 2 μg/ml of anti-PS antibody, followed by detection with anti-mouse IgM-HRP conjugate.

[9] = test system: L540 human Hodgkin's disease tumors; experiment: L540 tumors, immunoglobulin-tTF conjugate with etoposide; settings: mouse, in vivo
Protocol: The tumor test systems were: i) L540 human Hodgkin's disease tumors growing in SCID mice; ii) C1300 Muγ (interferon-secreting) neuroblastoma growing in nu/nu mice; iii) H460 human non-small cell lung carcinoma growing in nu/nu mice. To establish solid tumors, 1.5×10^7 tumor cells were injected subcutaneously into the right anterior flank of SCID or BALB/c nu/nu mice (Charles River Labs., Wilmingham, Mass.). When the tumors had grown to various diameters, mice were assigned to different experimental groups, each containing 4 to 9 mice.
Mice bearing L540 human Hodgkin's disease tumors were treated with a complex of tTF219 and a bispecific antibody together with the anti-cancer drug, etoposide, at a conventional dose.

[10] = test system: VCAM-1; experiment: FACS for upregulation of VCAM-1 on endothelial cells; format: cell-based, mouse
Protocol: (§1) Mouse endothelial cells were seeded in 48 well tissue culture plates and allowed to adhere overnight. Cells were stimulated with TNFα at the following concentrations: 500 U/ml; 100 U/ml; 20 U/ml; 4 U/ml; 0.8 U/ml; 0.16 U/ml; and with medium only.
Endothelial cells were then investigated for upregulation of the adhesion molecule VCAM-1 by fluorescence activated cell stain (FACS). To this end, cells were stained with an antibody against murine VCAM-1, followed by an appropriate FITC-conjugated secondary antibody. Fluorescent cells were detected on a flow cytometer (Becton Dickinson, San Jose, Calif.).

[11] = test system: Mouse endothelial cells; experiment: Cell based two stage coagulation assay after TNFα
Protocol: as §1
Endothelial cells were also tested for coagulant activity in a cell based two stage coagulation assay. After incubation with TNFα, cells were washed and incubated with coagulation factor mix (0.5 μg/ml factor VIIa in a mix containing 2.8 μg/ml factor IX, 3.4 μg/ml factor X, 50 μM phospholipids, in calcium buffer). The supernatant of wells was transferred into a 96 well ELISA plate. Substrate S2765 was added and Factor Xa generation measured.

[12] = molecular target: T1, recombinant human VEGF (VEGF165) (human, UniProt P15692-4 27-191); experiment: competition ELISA, 1 nM VEGF on VEGFR1 (Flt-1/Fc) wells, 100 fold molar excess of 2C3
T1 construct: Dimeric VEGF seen at about 42 kd on blots; also called huVEGF; free VEGF
T1 sequence (P15692 other isoform, or with tags, fused parts or gaps limits assumed): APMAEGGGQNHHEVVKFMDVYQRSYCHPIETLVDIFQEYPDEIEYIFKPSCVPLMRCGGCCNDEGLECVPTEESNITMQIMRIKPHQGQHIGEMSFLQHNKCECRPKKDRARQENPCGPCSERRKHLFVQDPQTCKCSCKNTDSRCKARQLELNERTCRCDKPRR

[13] = molecular target: T1, recombinant human VEGF (VEGF165); experiment: competition ELISA, 1 nM VEGF on VEGFR1 (Flt-1/Fc) wells, 1000 fold molar excess of 2C3
[14] = test system: IL-1α-stimulated bEnd.3 cells; experiment: Chromogenic assay of Factor Xa formation induced by cell-bound coaguligand; format: cell-based, mouse; settings: 10 μg per ml Annexin V
Protocol: The ability of Annexin V to affect Factor Xa formation induced by coaguligand was determined by a chromogenic assay. […] Annexin V was added at concentrations ranging from 0.1 to 10 μg/ml and cells were incubated for 30 min, before addition of diluted Proplex T. The amount of Factor Xa generated in the presence or absence of Annexin V was determined. Each treatment was performed in duplicate and repeated at least twice.

[15] = test system: L540 Hodgkin-bearing SCID mice; experiment: Annexin V inhibition of coaguligand-induced thrombosis in vivo; set-up: species or system mouse
Protocol: The ability of Annexin V to inhibit coaguligand-induced thrombosis in vivo was examined in L540 Hodgkin-bearing SCID mice.
Four hours after the last injection mice were anesthetized and perfused with heparinized saline. Tumors were removed, fixed with 4% formalin, paraffin-embedded and stained with hematoxylene-eosin. The number of thrombosed and non-thrombosed blood vessels were counted and the percentage of thrombosis was calculated.

## Factor VIIa: activated coagulation Factor VII, recombinant human
[1]
  average area of necrosis in tumor sections: some necrosis
[2]
  half-life in vivo: approximately two hours
[3]
  toxicity when given separately: practically non-toxic to mice

## TEC-11 anti-human endoglin antibody
[4]
  % of blood vessels in the tumor periphery to which the antibody localized: 84%
  % of blood vessels throughout the tumor to which the antibody localized: 46%

## NC(=O)c1nnn(Cc2cc(Cl)c(C(=O)c3ccc(Cl)cc3)c(Cl)c2)c1N [CAI, carboxyamidotriazole]
[5]
  disease stabilization, share of cancer patients: 49%

## monophosphoryl lipid A [MPL]
[6]
  dose known to be safe for human use: 100 μg/m^2

## VEGF
[7]
  tissue factor expression on the surface of HUVEC: upregulated tissue factor expression

## OO [H2O2]
[8]; H2O2 as low as 20 μM
  cells with PS at the cell surface: about 50%
[8]; H2O2 higher than 100 μM, 1 hour
  cells with PS translocation: ~90%
[8]; low levels of H2O2 (lower than 100 μM), identical to untreated cells
  cell viability: 95%

## COc1cc([C@@H]2c3cc4c(cc3[C@@H](O[C@@H]3O[C@@H]5CO[C@@H](C)O[C@H]5[C@H](O)[C@H]3O)[C@H]3COC(=O)[C@H]23)OCO4)cc(OC)c1O [etoposide]
[9]
  average tumor volume, day 14: 1400 mm^3

## TNFα
[7]
  tissue factor expression on the surface of HUVEC: upregulated tissue factor expression
[10]
  TNFα required for measurable increase of VCAM-1 expression: 20 U/ml
[11]
  TNFα at which an increase over negative control was detected in the coagulation assay: 0,16 U/ml
  dose for procoagulant effect, fold lower than for VCAM-1 increase: 125 fold

B1: tTF219 (G164A): tTF219 with amino acid 164 (Gly) replaced by Ala (protein)
chain: GSGTTNTVAAYNLTWKSTNFKTILEWEPKPVNQVYTVQISTKSGDWKSKCFYTTDTECDLTDEIVKDVKQTYLARVFSYPAGNVESTGSAGEPLYENSPEFTPYLETNLGQPTIQSFEQVGTKVNVTVEDERTLVRRNNTFLSLRDVFGKDLIYTLYYWKSSSSAKKTAKTNTNEFLIDVDKGENYCFSVQAVIPSRTVNRKSTDSPVECMGQEKGEFRE
[1]
  average area of necrosis in tumor sections: some necrosis
[3]
  toxicity when given separately: practically non-toxic to mice

B2: tTF219 (W158R) (protein)
chain: GSGTTNTVAAYNLTWKSTNFKTILEWEPKPVNQVYTVQISTKSGDWKSKCFYTTDTECDLTDEIVKDVKQTYLARVFSYPAGNVESTGSAGEPLYENSPEFTPYLETNLGQPTIQSFEQVGTKVNVTVEDERTLVRRNNTFLSLRDVFGKDLIYTLYYRKSSSSGKKTAKTNTNEFLIDVDKGENYCFSVQAVIPSRTVNRKSTDSPVECMGQEKGEFRE
[3]
  toxicity when given separately: practically non-toxic to mice

B3: 2C3 anti-VEGF antibody (antibody, V domains shown)
VH: QVQLQESGPELVKPGASVKMSCKASGYTFTSYVFHWVKQKPGQGLEWIGYINPYNDVTKYNEKFKGKATLTSDKSSSTAYMELSSLTSEDSAVYYCASYYGSSYGYYAMDDWGQGTTVTVSS
VL: DIQLTQSPASLSVSAGEKVTMSCKSSQSLLNSGNQKNYLAWYQQKPGQPPKLLIHGASTRESGVPDRFTGSGSGTDFTLTISSVQAEDLAVYYCQNDYSYPLTFGAGTKLELKR
[12]
  % of VEGF bound to VEGFR1-coated wells relative to the amount bound without 2C3: 92%
[13]
  % of VEGF bound to VEGFR1-coated wells relative to the amount bound without 2C3: 105%

B4: Annexin V: protein that binds to PS with high affinity (protein, UniProt P08758 2-320, looked up)
Annexin A5: AQVLRGTVTDFPGFDERADAETLRKAMKGLGTDEESILTLLTSRSNAQRQEISAAFKTLFGRDLLDDLKSELTGKFEKLIVALMKPSRLYDAYELKHALKGAGTNEKVLTEIIASRTPEELRAIKQVYEEEYGSSLEDDVVGDTSGYYQRMLVVLLQANRDPDAGIDEAQVEQDAQALFQAGELKWGTDEEKFITIFGTRSVSHLRKVFDKYMTISGFQIEETIDRETSGNLEQLLLAVVKSIRSIPAYLAETLYYAMKGAGTDDHTLIRVMVSRSEIDLFNIRKEFRKNFATSLYSMIKGDTSGDYKKALLLLCGEDD
[14]
  inhibition of factor Xa production: 58%
[15]; 100 μg Annexin V 2 hours before 40 μg anti-VCAM-1•tTF
  coaguligand-induced thrombosis and changes in tumor cell morphology after Annexin V pre-treatment: completely abolished
[15]; 100 μg Annexin V alone
  tumor morphology: did not alter tumor morphology
